Source: PubChem BioAssay AID1963444 (Molecular Pharmacology Branch, DTP, NCI, 2024)

Test system: HSSY-II complex spheroid growth, percent test/control
Assay: Anticancer human tumor HSSY-II cell line growth inhibition [Asc];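 further: spheroids exposed to drug for 7 days before reading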
Conditions: for IC50: curve of first compound; for viability, T/C: stronger effect = lower value
Summary of the method: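 Tumor cells were grown as multicellular spheroids with stromal HUVEC and mesenchymal stem cells and treated singly or in combination. Concentrations fell in half-log steps from the clinical Cmax, or from 10 microM where none was known.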

[1] = second compound 0.1 µM, first compound 0.00316 µM
[2] = second compound 0.1 µM, first compound 0.01 µM
[3] = second compound 0.1 µM, first compound 0.0316 µM
[4] = second compound 0.1 µM, first compound 0.1 µM
[5] = second compound 0.316 µM, first compound 0.00316 µM
[6] = second compound 0.316 µM, first compound 0.01 µM
[7] = second compound 0.316 µM, first compound 0.0316 µM
[8] = second compound 0.316 µM, first compound 0.1 µM
[9] = second compound 1 µM, first compound 0.00316 µM
[10] = second compound 1 µM, first compound 0.01 µM
[11] = second compound 1 µM, first compound 0.0316 µM
[12] = second compound 1 µM, first compound 0.1 µM
[13] = second compound 3.16 µM, first compound 0.00316 µM
[14] = second compound 3.16 µM, first compound 0.01 µM
[15] = second compound 3.16 µM, first compound 0.0316 µM
[16] = second compound 3.16 µM, first compound 0.1 µM
[17] = second compound 10 µM, first compound 0.00316 µM
[18] = second compound 10 µM, first compound 0.01 µM
[19] = second compound 10 µM, first compound 0.0316 µM
[20] = second compound 10 µM, first compound 0.1 µM

`COc1c(OCCCN2CCOCC2)ccc2c3n(c(=NC(=O)c4cnc(N)nc4)nc12)CCN3` + Cc1c(S(C)(=O)=O)c(-c2cc(F)cc(N3CCN(c4ccc(NS(=O)(=O)c5ccc(NC(CCN6CCC(C(=O)OCCCP(=O)(O)O)CC6)CSc6ccccc6)c(S(=O)(=O)C(F)(F)F)c5)cc4)CC3)c2)c(-c2ccc(Cl)cc2)n1C(C)C gave an IC50 (second compound 0.1 µM) of 37.6 nM, an IC50 (second compound 0.316 µM) of 31.7 nM and an IC50 (second compound 1 µM) of 25.4 nM. The IC50 (second compound 3.16 µM) was 26.3 nM, the IC50 (second compound 10 µM) was 26.4 nM and the viability, T/C [1] was 86.7%. The viability, T/C [2] was 72.9%, the viability, T/C [3] was 50.5% and the viability, T/C [4] was 35.9%. It also gave a viability, T/C (second compound 0.1 µM, first compound 0.316 µM) of 20.9%, a viability, T/C (second compound 0.1 µM, first compound 1 µM) of 10.2% and a viability, T/C [5] of 86.4%. It also gave a viability, T/C [6] of 74.1%, a viability, T/C [7] of 48.5% and a viability, T/C [8] of 28.6%. The viability, T/C (second compound 0.316 µM, first compound 0.316 µM) was 19.6%, the viability, T/C (second compound 0.316 µM, first compound 1 µM) was 8.57% and the viability, T/C [9] was 90.1%. For the same compound, the viability, T/C [10] was 67%, the viability, T/C [11] was 45% and the viability, T/C [12] was 30.4%. For the same compound, the viability, T/C (second compound 1 µM, first compound 0.316 µM) was 17.7%, the viability, T/C (second compound 1 µM, first compound 1 µM) was 7.86% and the viability, T/C [13] was 82.1%. The viability, T/C [14] was 67.9%, the viability, T/C [15] was 42.4% and the viability, T/C [16] was 34.5%. For the same compound, the viability, T/C (second compound 3.16 µM, first compound 0.316 µM) was 16.2%, the viability, T/C (second compound 3.16 µM, first compound 1 µM) was 6.36% and the viability, T/C [17] was 77.6%. The viability, T/C [18] was 68.9%, the viability, T/C [19] was 42.9% and the viability, T/C [20] was 30.7%. For the same compound, the viability, T/C (second compound 10 µM, first compound 0.316 µM) was 16.4% and the viability, T/C (second compound 10 µM, first compound 1 µM) was 3.47%.

For `NC(=O)C(=Cn1cnc(-c2cc(C(F)(F)F)cc(C(F)(F)F)c2)n1)c1cncnc1` + Cc1c(S(C)(=O)=O)c(-c2cc(F)cc(N3CCN(c4ccc(NS(=O)(=O)c5ccc(NC(CCN6CCC(C(=O)OCCCP(=O)(O)O)CC6)CSc6ccccc6)c(S(=O)(=O)C(F)(F)F)c5)cc4)CC3)c2)c(-c2ccc(Cl)cc2)n1C(C)C, the IC50 (second compound 0.1 µM) was 17.9 nM, the IC50 (second compound 0.316 µM) was 18.3 nM and the IC50 (second compound 1 µM) was 13.6 nM. For the same compound, the IC50 (second compound 3.16 µM) was 15.1 nM, the IC50 (second compound 10 µM) was 13.3 nM and the viability, T/C (second compound 0.1 µM, first compound 0.000949 µM) was 87.7%. For the same compound, the viability, T/C (second compound 0.1 µM, first compound 0.003 µM) was 86%, the viability, T/C (second compound 0.1 µM, first compound 0.00949 µM) was 65.4% and the viability, T/C (second compound 0.1 µM, first compound 0.03 µM) was 37.4%. For the same compound, the viability, T/C (second compound 0.1 µM, first compound 0.0949 µM) was 9.64%, the viability, T/C (second compound 0.1 µM, first compound 0.3 µM) was 0.51% and the viability, T/C (second compound 0.316 µM, first compound 0.000949 µM) was 99.8%. The viability, T/C (second compound 0.316 µM, first compound 0.003 µM) was 83.5%, the viability, T/C (second compound 0.316 µM, first compound 0.00949 µM) was 71.9% and the viability, T/C (second compound 0.316 µM, first compound 0.03 µM) was 36.1%. For the same compound, the viability, T/C (second compound 0.316 µM, first compound 0.0949 µM) was 6%, the viability, T/C (second compound 0.316 µM, first compound 0.3 µM) was 0.34% and the viability, T/C (second compound 1 µM, first compound 0.000949 µM) was 96.1%. For the same compound, the viability, T/C (second compound 1 µM, first compound 0.003 µM) was 80%, the viability, T/C (second compound 1 µM, first compound 0.00949 µM) was 61.3% and the viability, T/C (second compound 1 µM, first compound 0.03 µM) was 30%. The viability, T/C (second compound 1 µM, first compound 0.0949 µM) was 5.9%, the viability, T/C (second compound 1 µM, first compound 0.3 µM) was 0.23% and the viability, T/C (second compound 3.16 µM, first compound 0.000949 µM) was 91.1%. For the same compound, the viability, T/C (second compound 3.16 µM, first compound 0.003 µM) was 84.3%, the viability, T/C (second compound 3.16 µM, first compound 0.00949 µM) was 68.1% and the viability, T/C (second compound 3.16 µM, first compound 0.03 µM) was 24%. For the same compound, the viability, T/C (second compound 3.16 µM, first compound 0.0949 µM) was 2.17%, the viability, T/C (second compound 3.16 µM, first compound 0.3 µM) was 0.24% and the viability, T/C (second compound 10 µM, first compound 0.000949 µM) was 84.9%. It also gave a viability, T/C (second compound 10 µM, first compound 0.003 µM) of 89.6%, a viability, T/C (second compound 10 µM, first compound 0.00949 µM) of 56.5% and a viability, T/C (second compound 10 µM, first compound 0.03 µM) of 26.9%. It also gave a viability, T/C (second compound 10 µM, first compound 0.0949 µM) of 1.88% and a viability, T/C (second compound 10 µM, first compound 0.3 µM) of 0.28%.

`NC1CCC(NC2CC2c2ccccc2)CC1` (stereo not given) + Cc1c(S(C)(=O)=O)c(-c2cc(F)cc(N3CCN(c4ccc(NS(=O)(=O)c5ccc(NC(CCN6CCC(C(=O)OCCCP(=O)(O)O)CC6)CSc6ccccc6)c(S(=O)(=O)C(F)(F)F)c5)cc4)CC3)c2)c(-c2ccc(Cl)cc2)n1C(C)C gave an IC50 (second compound 0.1 µM) greater than 100 nM, an IC50 (second compound 0.316 µM) greater than 100 nM and an IC50 (second compound 1 µM) greater than 100 nM. It also gave an IC50 (second compound 3.16 µM) greater than 100 nM, an IC50 (second compound 10 µM) greater than 100 nM and a viability, T/C (second compound 0.1 µM, first compound 0.000316 µM) of 58.9%. It also gave a viability, T/C (second compound 0.1 µM, first compound 0.001 µM) of 69.2%, a viability, T/C [1] of 64% and a viability, T/C [2] of 56.5%. For the same compound, the viability, T/C [3] was 60.3%, the viability, T/C [4] was 66.5% and the viability, T/C (second compound 0.316 µM, first compound 0.000316 µM) was 77%. For the same compound, the viability, T/C (second compound 0.316 µM, first compound 0.001 µM) was 67.3%, the viability, T/C [5] was 58.9% and the viability, T/C [6] was 60.6%. For the same compound, the viability, T/C [7] was 60%, the viability, T/C [8] was 64.5% and the viability, T/C (second compound 1 µM, first compound 0.000316 µM) was 70.3%. The viability, T/C (second compound 1 µM, first compound 0.001 µM) was 60.8%, the viability, T/C [9] was 57.5% and the viability, T/C [10] was 59%. The viability, T/C [11] was 60.6%, the viability, T/C [12] was 62.8% and the viability, T/C (second compound 3.16 µM, first compound 0.000316 µM) was 73.1%. It also gave a viability, T/C (second compound 3.16 µM, first compound 0.001 µM) of 62.1%, a viability, T/C [13] of 60.8% and a viability, T/C [14] of 61.1%. It also gave a viability, T/C [15] of 59.9%, a viability, T/C [16] of 61.4% and a viability, T/C (second compound 10 µM, first compound 0.000316 µM) of 66%. The viability, T/C (second compound 10 µM, first compound 0.001 µM) was 66.5%, the viability, T/C [17] was 70.2% and the viability, T/C [18] was 57.9%. The viability, T/C [19] was 62.3% and the viability, T/C [20] was 66.6%.
